In PubChem BioAssay AID248 (DTP/NCI, 2004):
“And” between values parts separate entries of the source, which are not always exact repeats. Equal values may be shown once. Toxic doses and inconclusive results are not listed. Cut-off read from the data, not from the text of the source: active = T/C of 150% or more; inactive = T/C below 125%.

Tested on: L1210 leukemia ip in BDF1 mice, survival T/C
Test: NCI In Vivo Anticancer Drug Screen. Data for tumor model L1210 Leukemia (intraperitoneal) in B6D2F1 (BDF1) mice
Details: endpoint: mean survival time, higher = longer survival
In short: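 Ratio derived from survival: compound-dosed mice over vehicle-dosed mice, all bearing a transplantable tumor.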

[1] = dose: 100.0 mg/kg/injection, schedule: Q01DX001 (ip), vehicle: saline
[2] = dose: 200.0 mg/kg/injection, schedule: Q01DX001 (ip), vehicle: saline
[3] = dose: 400.0 mg/kg/injection, schedule: Q01DX001 (ip), vehicle: saline
[4] = dose: 100.0 mg/kg/injection, schedule: Q01DX009 (ip), vehicle: saline
[5] = dose: 100.0 mg/kg/injection, schedule: Q04DX003 (ip), vehicle: saline
[6] = dose: 200.0 mg/kg/injection, schedule: Q01DX009 (ip), vehicle: saline
[7] = dose: 200.0 mg/kg/injection, schedule: Q04DX003 (ip), vehicle: saline
[8] = dose: 400.0 mg/kg/injection, schedule: Q04DX003 (ip), vehicle: saline
[9] = dose: 100.0 mg/kg/injection, schedule: Q04DX003 (ip), vehicle: Klucel (hydroxypropylcellulose) (HPC)
[10] = dose: 200.0 mg/kg/injection, schedule: Q04DX003 (ip), vehicle: Klucel (hydroxypropylcellulose) (HPC)
[11] = dose: 400.0 mg/kg/injection, schedule: Q04DX003 (ip), vehicle: Klucel (hydroxypropylcellulose) (HPC)
[12] = dose: 100.0 mg/kg/injection, schedule: Q01DX009 (ip), vehicle: saline with Tween-80
[13] = dose: 200.0 mg/kg/injection, schedule: Q01DX009 (ip), vehicle: saline with Tween-80

Measured: T/C

CCC1CCC(NC(=O)NCCF)CC1 (centres undefined)
inactive: dose: 75.0 mg/kg/injection, schedule: Q01DX001 (ip), vehicle: other 98 % of control

COc1c(OC2OC(CO)C(O)C(O)C2O)cc2c(c1OC)-c1ccc(SC)c(=O)cc1C(NC(C)=O)CC2 (centres undefined)
inactive: dose: 6.0 mg/kg/injection, schedule: Q01DX009 (ip), vehicle: saline 97 % of control | dose: 12.0 mg/kg/injection, schedule: Q01DX001 (ip), vehicle: saline 98 % of control | dose: 12.0 mg/kg/injection, schedule: Q01DX009 (ip), vehicle: saline 98 % of control | dose: 25.0 mg/kg/injection, schedule: Q01DX001 (ip), vehicle: saline 100 % of control | dose: 25.0 mg/kg/injection, schedule: Q01DX009 (ip), vehicle: saline 101 % of control

COc1ccccc1NC(=O)Nc1ccc(C)c(C)c1
inactive: dose: 100.0 mg/kg/injection, schedule: Q01DX009 (ip), vehicle: gum acacia 92 % of control | dose: 100.0 mg/kg/injection, schedule: Q04DX003 (ip), vehicle: gum acacia 96 % of control | dose: 200.0 mg/kg/injection, schedule: Q01DX009 (ip), vehicle: gum acacia 96 % of control | dose: 200.0 mg/kg/injection, schedule: Q04DX003 (ip), vehicle: gum acacia 98 % of control | dose: 400.0 mg/kg/injection, schedule: Q01DX009 (ip), vehicle: gum acacia 90 % of control | dose: 400.0 mg/kg/injection, schedule: Q04DX003 (ip), vehicle: gum acacia 90 % of control

CC(CCCN(CCCl)CCCl)Nc1c2ccccc2nc2c1ccc1ccccc12 (centres undefined)
inactive: dose: 0.15 mg/kg/injection, schedule: Q01DX009 (ip), vehicle: saline 109 % of control | dose: 0.31 mg/kg/injection, schedule: Q01DX009 (ip), vehicle: saline 110 % of control | dose: 0.63 mg/kg/injection, schedule: Q01DX009 (ip), vehicle: saline 122 % of control | dose: 1.25 mg/kg/injection, schedule: Q01DX009 (ip), vehicle: saline 94 % of control | dose: 2.5 mg/kg/injection, schedule: Q01DX009 (ip), vehicle: saline 106 % of control

O=[N+]([O-])c1ccc(NC(CO)C(O)C(O)C(O)CO)c([N+](=O)[O-])c1 (centres undefined)
inactive: [1] 102 % of control | [2] 98 % of control | [3] 98 % of control

CSc1nc(C)c(C)[n+](C)n1
inactive: dose: 75.0 mg/kg/injection, schedule: Q01DX001 (ip), vehicle: saline with Tween-80 115 % of control | dose: 150.0 mg/kg/injection, schedule: Q01DX001 (ip), vehicle: saline with Tween-80 117 % of control

CCN(CC)CCN(CCN(CC)CC)c1ccc2ccccc2c1
inactive: dose: 75.0 mg/kg/injection, schedule: Q01DX001 (ip), vehicle: acetone 111 % of control

CS(=O)(=O)c1ccc2nnnn2n1
inactive: dose: 6.25 mg/kg/injection, schedule: Q04DX003 (ip), vehicle: saline 100 % of control | dose: 12.5 mg/kg/injection, schedule: Q04DX003 (ip), vehicle: saline 103 % of control | dose: 25.0 mg/kg/injection, schedule: Q04DX003 (ip), vehicle: saline 100 % of control

Nc1cccnc1NCC(O)c1ccccc1 (centres undefined)
inactive: [1] 103 % of control | [2] 97 % of control

CCCn1nnc2ccccc2c1=Nc1ccccc1Cl
inactive: dose: 50.0 mg/kg/injection, schedule: Q01DX009 (ip), vehicle: saline 97 % of control | [4] 88 % of control | [5] 110 % of control | [6] 97 % of control | [7] 106 % of control | [8] 100 % of control

CC#CC(O)(C(=O)OCC)C1CCCCC1 (centres undefined)
inactive: [1] 96 % of control | [2] 113 % of control | [3] 100 % of control

CC1(CO)CC2CCC1C2 (centres undefined)
inactive: [9] 104 % of control | [10] 108 % of control | [11] 106 % of control

CC(C)(C(=O)OCCOCCCl)c1cccc2ccccc12
inactive: dose: 100.0 mg/kg/injection, schedule: Q04DX002 (ip), vehicle: saline with Tween-80 113 % of control | dose: 200.0 mg/kg/injection, schedule: Q04DX002 (ip), vehicle: saline with Tween-80 111 % of control | dose: 400.0 mg/kg/injection, schedule: Q04DX002 (ip), vehicle: saline with Tween-80 95 % of control

COc1ccccc1-n1c(O)c(N=Nc2ccccc2C)c(=O)n(-c2ccccc2)c1=S
inactive: dose: 100.0 mg/kg/injection, schedule: Q01DX001 (ip), vehicle: Klucel (hydroxypropylcellulose) (HPC) 110 % of control | dose: 200.0 mg/kg/injection, schedule: Q01DX001 (ip), vehicle: Klucel (hydroxypropylcellulose) (HPC) 96 % of control | dose: 400.0 mg/kg/injection, schedule: Q01DX001 (ip), vehicle: Klucel (hydroxypropylcellulose) (HPC) 96 % of control

COc1cc[n+]([O-])cc1
inactive: [4] 103 % of control | dose: 100.0 mg/kg/injection, schedule: Q01DX Z (ip), vehicle: saline 102 % of control and 106 % of control | [5] 121 % of control | dose: 150.0 mg/kg/injection, schedule: Q01DX Z (ip), vehicle: saline 103 % of control and 107 % of control | [6] 100 % of control | [7] 114 % of control | dose: 225.0 mg/kg/injection, schedule: Q01DX Z (ip), vehicle: saline 95 % of control and 97 % of control | dose: 300.0 mg/kg/injection, schedule: Q01DX Z (ip), vehicle: saline 92 % of control and 106 % of control | dose: 400.0 mg/kg/injection, schedule: Q01DX009 (ip), vehicle: saline 99 % of control | [8] 95 % of control

c1ccc(N2CCNCC2)nc1
inactive: dose: 5.0 mg/kg/injection, schedule: Q01DX009 (ip), vehicle: acetone 100 % of control | dose: 10.0 mg/kg/injection, schedule: Q01DX001 (ip), vehicle: acetone 96 % of control | dose: 10.0 mg/kg/injection, schedule: Q01DX009 (ip), vehicle: acetone 97 % of control | dose: 10.0 mg/kg/injection, schedule: Q04DX003 (ip), vehicle: saline 109 % of control | dose: 20.0 mg/kg/injection, schedule: Q01DX001 (ip), vehicle: acetone 95 % of control | dose: 20.0 mg/kg/injection, schedule: Q01DX009 (ip), vehicle: acetone 95 % of control | dose: 20.0 mg/kg/injection, schedule: Q04DX003 (ip), vehicle: saline 98 % of control | dose: 40.0 mg/kg/injection, schedule: Q01DX001 (ip), vehicle: acetone 106 % of control | dose: 40.0 mg/kg/injection, schedule: Q04DX003 (ip), vehicle: saline 101 % of control

C/C(=N/O)c1ccc(O)cc1
inactive: [12] 103 % of control | [13] 96 % of control | dose: 400.0 mg/kg/injection, schedule: Q01DX009 (ip), vehicle: saline with Tween-80 97 % of control

OC(c1ccccc1)c1ccncc1 (centres undefined)
inactive: dose: 100.0 mg/kg/injection, schedule: Q01DX001 (ip), vehicle: saline with Tween-80 103 % of control | dose: 200.0 mg/kg/injection, schedule: Q01DX001 (ip), vehicle: saline with Tween-80 97 % of control | dose: 400.0 mg/kg/injection, schedule: Q01DX001 (ip), vehicle: saline with Tween-80 103 % of control

COc1cc(/C=N/NC(=O)CNC(=O)c2ccc(Cl)cc2Cl)ccc1O
inactive: dose: 50.0 mg/kg/injection, schedule: Q01DX009 (ip), vehicle: saline with Tween-80 91 % of control | [12] 86 % of control | [13] 88 % of control

NC(=O)c1nnn(Cc2ccccc2)c1C(N)=O
inactive: dose: 100.0 mg/kg/injection, schedule: Q04DX002 (ip), vehicle: Klucel (hydroxypropylcellulose) (HPC) 104 % of control | dose: 200.0 mg/kg/injection, schedule: Q04DX002 (ip), vehicle: Klucel (hydroxypropylcellulose) (HPC) 96 % of control | dose: 400.0 mg/kg/injection, schedule: Q04DX002 (ip), vehicle: Klucel (hydroxypropylcellulose) (HPC) 101 % of control

Cc1cccc(C)c1NC(=O)Oc1ccc(C2CCCCC2)cc1
inactive: dose: 100.0 mg/kg/injection, schedule: Q01DX009 (ip), vehicle: Klucel (hydroxypropylcellulose) (HPC) 101 % of control | [9] 91 % of control | dose: 200.0 mg/kg/injection, schedule: Q01DX009 (ip), vehicle: Klucel (hydroxypropylcellulose) (HPC) 97 % of control | [10] 93 % of control | dose: 400.0 mg/kg/injection, schedule: Q01DX009 (ip), vehicle: Klucel (hydroxypropylcellulose) (HPC) 94 % of control | [11] 88 % of control

CCC(=O)/C=C/C1=C(C)CCCC1(C)C
inactive: [12] 96 % of control | [5] 95 % of control | [13] 93 % of control | [7] 97 % of control | [8] 97 % of control

COc1cc(C=Nc2cccc(C(=O)O)c2)ccc1N(CCCl)CCCl
inactive: dose: 50.0 mg/kg/injection, schedule: Q01DX001 (ip), vehicle: carboxymethylcellulose (CMC) 117 % of control
